Literature values in patent US9308182B2 (TEVA PHARMACEUTICAL INDUSTRIES, LTD., priority 2012, dated 2016).

Conditions: non specific MAO inhibitor; all the treatment groups; cited from earlier work

Compound: O=C(CCNNC(=O)c1ccncc1)NCc1ccccc1 [nialamide]
- effect on blood pressure response to tyramine: severe increase in blood pressure
